Test results from PubChem BioAssay (NCI).
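Test compounds were applied to cells in 96-well plates for 48 hours at 5 doses. TGI is the concentration that stops growth completely.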

Assays:
Experiment in all cases: NCI-60 cell line screen, 48 h
[1] = tested on: CCRF-CEM leukemia
[2] = tested on: HS 578T breast
[3] = tested on: COLO 205 colon
[4] = tested on: RXF 393 renal
[5] = tested on: OVCAR-8 ovarian
[6] = tested on: UACC-62 melanoma
[7] = tested on: MDA-N
[8] = tested on: NCI-H23 lung
[9] = tested on: MCF7 breast
[10] = tested on: CAKI-1 renal
[11] = tested on: NCI/ADR-RES ovarian
[12] = tested on: HOP-92 NSCLC
[13] = tested on: MOLT-4 leukemia
[14] = tested on: SK-MEL-28 melanoma
[15] = tested on: MDA-MB-435
[16] = tested on: HL-60(TB) leukemia
[17] = tested on: SF-539 CNS
[18] = tested on: A549 NSCLC
[19] = tested on: T-47D breast
[20] = tested on: PC-3 prostate
[21] = tested on: SK-MEL-2 melanoma
[22] = tested on: SN12C renal
[23] = tested on: SNB-19 CNS
[24] = tested on: MDA-MB-231 breast
[25] = tested on: 786-0 renal
[26] = tested on: OVCAR-3 ovarian
[27] = tested on: A498 renal
[28] = tested on: UO-31 renal
[29] = tested on: HOP-62 NSCLC
[30] = tested on: SF-295 CNS
[31] = tested on: HT29 colon
[32] = tested on: M14 melanoma
[33] = tested on: ACHN renal
[34] = tested on: NCI-H460 lung
[35] = tested on: HCT-15 colon
[36] = tested on: UACC-257 melanoma
[37] = tested on: LOX IMVI melanoma
[38] = tested on: SK-MEL-5 melanoma
[39] = tested on: SNB-75 CNS
[40] = tested on: HCT-116 colon
[41] = tested on: OVCAR-5 ovarian
[42] = tested on: EKVX NSCLC
[43] = tested on: DU-145 prostate
[44] = tested on: KM12 colon
[45] = tested on: TK-10 renal
[46] = tested on: IGROV1 ovarian
[47] = tested on: SF-268 CNS
[48] = tested on: SW-620 colon
[49] = tested on: NCI-H522 lung
[50] = tested on: OVCAR-4 ovarian
[51] = tested on: U251 CNS
[52] = tested on: SR leukemia
[53] = tested on: NCI-H226 lung
[54] = tested on: HCC-2998 colon
[55] = tested on: BT-549 breast
[56] = tested on: SK-OV-3 ovarian
[57] = tested on: RPMI-8226 leukemia
[58] = tested on: MALME-3M melanoma
[59] = tested on: K-562 leukemia

Measured: TGI

Nc1ccnc2c1ncn2[C@H]1C[C@H](O)[C@@H](CO)O1
not listed: [56] | [57] | [58] | [59]
> 100 µM: all other assays above

C[C@H](CCc1nc(C#N)c(N)o1)[C@H]1CC[C@H]2[C@@H]3CCC4C[C@@H](O)CC[C@]4(C)[C@H]3C[C@@H](O)[C@]12C (stereo not given in full)
26.6 µM: [14]
40.8 µM: [29]
25.6 µM: [46]
16.6 µM: [28]
16.2 µM: [49]
30.5 µM: [30]
35.1 µM: [41]
31.2 µM: [3] | [54]
14.7 µM: [55]
20.2 µM: [13]
27.8 µM: [42] | [47]
30.9 µM: [7]
34.2 µM: [32]
32.2 µM: [21]
31 µM: [23]
29 µM: [52]
29.5 µM: [35] | [38]
28 µM: [12] | [43]
4.92 µM: [50]
35.7 µM: [9]
20.3 µM: [5]
30 µM: [15]
26.5 µM: [51]
25 µM: [11] | [39]
27.6 µM: [17]
24.7 µM: [4]
26.4 µM: [40]
28.2 µM: [44]
36.6 µM: [27]
32.7 µM: [8] | [24]
16.3 µM: [20]
6.05 µM: [57]
31.3 µM: [34]
23.8 µM: [37]
27.7 µM: [31]
25.1 µM: [53]
27.3 µM: [26]
0.445 µM: [1]
39.6 µM: [59]
28.6 µM: [33] | [45]
25.3 µM: [6]
30.3 µM: [19]
24.6 µM: [22]
31.6 µM: [2]
20.4 µM: [36]
27.4 µM: [48]
24 µM: [25]
28.5 µM: [56]
23 µM: [18]
28.4 µM: [10] | [58]
2.38 µM: [16]

CCOP(=O)(OCC)C(c1ccccc1)N(C(=O)NC(F)(F)F)c1ccc(C)cc1 (stereo not given)
> 100 µM: all assays above

CC(C)(C)OC(=O)NCC(c1c[nH]c2ccccc12)c1c[nH]c2ccccc12
29.2 µM: [18]
> 100 µM: [6] | [9] | [27] | [33]
35.3 µM: [7] | [14] | [37]
27.4 µM: [28]
32.8 µM: [30]
31.9 µM: [24]
44.7 µM: [1]
34.4 µM: [5]
51.3 µM: [11]
53.5 µM: [35]
33.6 µM: [47]
32.7 µM: [22]
28.1 µM: [39]
29.5 µM: [20]
29 µM: [43]
57.8 µM: [2]
44 µM: [53]
26.2 µM: [42]
17.7 µM: [4]
22.2 µM: [57]
39.3 µM: [49]
32.9 µM: [21]
26.7 µM: [38]
32.4 µM: [52]
30.1 µM: [34]
26.5 µM: [50]
31.8 µM: [16]
28.9 µM: [45]
29.1 µM: [3] | [10] | [32]
41 µM: [48]
30.4 µM: [40]
35.4 µM: [17]
35.1 µM: [55]
29.9 µM: [13]
30.6 µM: [26]
26.3 µM: [46]
31.7 µM: [15]
28.6 µM: [36] | [44]
27.5 µM: [12]
36.5 µM: [19]
33.5 µM: [56]
31.4 µM: [41]
32 µM: [25]
29.8 µM: [31] | [51]
37 µM: [29]
31.1 µM: [23]
33.2 µM: [58]
36.4 µM: [8]

O=S1(=O)N=C(SCc2c[nH]c3ccccc23)N(c2ccccc2)c2ccncc21
50 µM: [28]
82.2 µM: [27]
65.5 µM: [25]
87.7 µM: [39]
80.5 µM: [17]
not listed: [4] | [46] | [57]
> 100 µM: all other assays above

Cc1c2oc(=O)c(C#N)cc2c2ccccn12
69.5 µM: [26]
40.7 µM: [30]
not listed: [22] | [29] | [49]
> 100 µM: all other assays above

O=C(O)c1c(CC(Cc2ccccc2)C(=O)O)ccc2c1CCC2 (stereo not given)
not listed: [32]
> 100 µM: all other assays above
